Results on 28 compounds are retold here after patent US7829572B2 (Pfizer Inc, priority 2006, dated 2010).

The assay concerns the target T1, calcium receptor (CasR) (Homo sapiens, UniProt P41180).
T1 construct: expressed in transfected cells; host or cells: HEK 293
T1 sequence (P41180 20-1078): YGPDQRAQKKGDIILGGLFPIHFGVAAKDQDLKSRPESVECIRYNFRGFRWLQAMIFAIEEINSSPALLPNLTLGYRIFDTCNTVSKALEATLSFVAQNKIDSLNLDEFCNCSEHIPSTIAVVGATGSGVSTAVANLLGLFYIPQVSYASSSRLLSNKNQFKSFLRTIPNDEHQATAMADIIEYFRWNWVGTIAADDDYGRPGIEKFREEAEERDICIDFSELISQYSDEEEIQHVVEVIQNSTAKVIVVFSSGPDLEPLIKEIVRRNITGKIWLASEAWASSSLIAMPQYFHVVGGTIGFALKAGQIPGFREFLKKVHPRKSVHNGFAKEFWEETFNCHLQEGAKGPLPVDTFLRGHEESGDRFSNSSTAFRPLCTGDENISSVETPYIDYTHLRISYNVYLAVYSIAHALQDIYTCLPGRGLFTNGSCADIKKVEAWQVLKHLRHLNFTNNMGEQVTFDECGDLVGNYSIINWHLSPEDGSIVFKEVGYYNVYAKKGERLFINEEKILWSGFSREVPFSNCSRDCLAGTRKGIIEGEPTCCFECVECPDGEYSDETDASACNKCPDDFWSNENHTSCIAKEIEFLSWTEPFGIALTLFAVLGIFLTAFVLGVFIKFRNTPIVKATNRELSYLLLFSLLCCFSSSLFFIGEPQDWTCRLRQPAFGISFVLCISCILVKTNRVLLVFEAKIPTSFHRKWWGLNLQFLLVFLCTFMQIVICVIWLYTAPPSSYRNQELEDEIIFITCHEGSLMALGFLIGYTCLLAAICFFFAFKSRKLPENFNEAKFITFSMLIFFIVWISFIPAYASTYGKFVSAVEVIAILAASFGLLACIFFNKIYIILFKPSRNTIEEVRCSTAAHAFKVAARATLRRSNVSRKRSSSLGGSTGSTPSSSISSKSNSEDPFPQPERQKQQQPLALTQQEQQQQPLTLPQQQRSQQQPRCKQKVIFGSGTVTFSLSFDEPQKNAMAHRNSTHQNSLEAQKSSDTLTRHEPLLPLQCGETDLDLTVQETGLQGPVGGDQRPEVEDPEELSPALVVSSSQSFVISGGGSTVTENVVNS
Kind of assay: FLIPR Assay for Evaluating the Potency and Selectivity of Test Compounds. The note with it: HEK 293 cells expressing CasR; 30 minutes pre-incubation; stimulation by 1.7 mM Ca2+; read 42 seconds after stimulation. The assay is classed as cell-based. The text has this:
FLIPR Assay for Evaluating the Potency and Selectivity of Test Compounds
Human kidney cell (HEK 293) expressing the calcium receptor (CasR) are used to detect antagonists of the receptor using Fluorometric imaging plate reader (FLIPR, Molecular Devices, Sunnyvale Calif.). Receptor activation by extracellular calcium results in the release of calcium from intracellular stores into the cytosol. A fluorescent indicator (Fluo-4) is internalized by the cells from growth media and interacts with calcium released into the cytosol to provide a means of quantifying intracellular Ca^2+ levels and receptor agonism/antagonism. Fluorescence intensity is detected by the FLIPR CCD camera and traced as a function of time. Potential antagonists are identified by their ability to decrease this fluorescent response.
Prior to the addition of test compound cells are washed with a 10 mM HEPES buffer solution. The test compound, for example the compound of Example 1, is added at various doses (from 1 µM to 3 nM) and pre-incubated with cells for 30 minutes followed by stimulation of the CasR by the addition of 1.7 mM Ca^2+. IC50 values are based on the ability of the cells to inhibit the Ca^2+ induced increase in intracellular Ca^2+. Fluorescence signal is read 42 seconds after the stimulation of the CasR by the addition of 1.7 mM Ca^2+.
The following table provides FLIPR IC50 data for the specified Examples. The IC50s are reported as micromolar concentration with n being the number of times the particular compound was assayed.

Structures are written as SMILES.

`CN(C)c1nccc2nc(-c3ccccc3O)n(CCc3ccccc3)c(=O)c12` [Example 21, 5-Dimethylamino-2-(2-hydroxy-phenyl)-3-phenethyl-3H-pyrido[4,3-d]pyrimidin-4-one]: the concentration for half-maximal inhibition (IC50) worked out at 13800 nM.

For the compound `O=c1c2c(C(F)(F)F)nccc2nc(-c2ccccc2O)n1CCc1ccccc1F` [Example 7], the IC50 was 130 nM.

Take `C[C@@H](CC1CCCCC1)n1c(-c2ncccc2O)nc2ccnc(C(F)(F)F)c2c1=O` [Example 48b, (S)-3-(1-cyclohexylpropan-2-yl)-2-(3-hydroxypyridin-2-yl)-5-(trifluoromethyl)pyrido[4,3-d]pyrimidin-4(3H)-one]: the IC50 worked out at 1690 nM.

`CC(Cc1ccccc1F)n1c(-c2cscn2)nc2ccnc(C(F)(F)F)c2c1=O` (stereo not shown) [Example 65, 3-(1-(2-fluorophenyl)propan-2-yl)-2-(thiazol-4-yl)-5-(trifluoromethyl)pyrido[4,3-d]pyrimidin-4(3H)-one]: the IC50 came to 10500 nM.

In the case of `COc1ccccc1CCn1c(-c2cscn2)nc2ccnc(C(F)(F)F)c2c1=O` [Example 60, 3-(2-methoxyphenethyl)-2-(thiazol-4-yl)-5-(trifluoromethyl)pyrido[4,3-d]pyrimidin-4(3H)-one], the IC50 worked out at 23200 nM.

`C[C@H](Cc1ccccc1)n1c(-c2ncccc2C(F)(F)F)nc2ccnc(C(F)(F)F)c2c1=O` [Example 77]: the IC50 amounted to 700 nM.

Regarding `CC(C)c1nc2ccnc(C(F)(F)F)c2c(=O)n1CCc1ccccc1` [Example 58, 2-isopropyl-3-phenethyl-5-(trifluoromethyl)pyrido[4,3-d]pyrimidin-4(3H)-one], the IC50 was 4680 nM.

Regarding `C[C@H](Cc1ccccc1)n1c(-c2cscn2)nc2ccnc(C(F)(F)F)c2c1=O` [Example 53, (R)-3-(1-phenylpropan-2-yl)-2-(thiazol-4-yl)-5-(trifluoromethyl)pyrido[4,3-d]pyrimidin-4(3H)-one], the IC50 worked out at 260 nM.

Take `C[C@H](Cc1ccccc1)n1c(-c2ncccc2NC(=O)C(F)(F)F)nc2ccnc(C(F)(F)F)c2c1=O` [Example 73, (R)-2,2,2-trifluoro-N-(2-(4-oxo-3-(1-phenylpropan-2-yl)-5-(trifluoromethyl)-3,4-dihydropyrido[4,3-d]pyrimidin-2-VI)pyridin-3-VI)acetamide]: the IC50 worked out at 200 nM.

For the compound `O=c1c2c(C(F)(F)F)nccc2nc(-c2cccc(F)c2O)n1CCc1ccccc1F` [Example 9, 2-(3-Fluoro-2-hydroxy-phenyl)-3-[2-(2-fluoro-phenyl)-ethyl]-5-trifluoromethyl-3H-pyrido[4,3-d]pyrimidin-4-one], the IC50 amounted to 290 nM.

Regarding `O=c1c2c(OCC(F)(F)F)nccc2nc(-c2ccccc2O)n1CCc1ccccc1` [Example 36, 2-(2-Hydroxy-phenyl)-3-phenethyl-5-(2,2,2-trifluoro-ethoxy)-3H-pyrido[4,3-d]pyrimidin-4-one], the IC50 worked out at 600 nM.

As to `Cc1cc(-c2nccc3nc(-c4ccccc4O)n(CCc4ccccc4)c(=O)c23)cnc1N(C)C` [Example 28, 5-(6-Dimethylamino-5-methyl-pyridin-3-yl)-2-(2-hydroxy-phenyl)-3-phenethyl-3H-pyrido[4,3-d]pyrimidin-4-one], the IC50 stood at 4830 nM.

With `O=c1c2c(N3CCNCC3)nccc2nc(-c2ccccc2O)n1CCc1ccccc1` [Example 20, 2-(2-Hydroxy-phenyl)-3-phenethyl-5-piperazin-1-yl-3H-pyrido[4,3-d]pyrimidin-4-one], the IC50 was greater than 100000 nM.

For `COc1ccc(F)c(CCn2c(-c3ncccc3O)nc3ccnc(C(F)(F)F)c3c2=O)c1` [Example 69, 3-(2-fluoro-5-methoxyphenethyl)-2-(3-hydroxypyridin-2-yl)-5-(trifluoromethyl)pyrido[4,3-d]pyrimidin-4(3H)-one], the IC50 is 66900 nM.

On to `CS(=O)(=O)Nc1cccnc1-c1nc2ccnc(C(F)(F)F)c2c(=O)n1CCc1ccccc1` [Example 64, N-(2-(4-oxo-3-phenethyl-5-(trifluoromethyl)-3,4-dihydropyrido[4,3-d]pyrimidin-2-yl)pyridin-3-yl)methanesulfonamide], for which the IC50 is 61800 nM.

For the compound `O=c1c2c(C(F)(F)F)nccc2nc(-c2ncccc2O)n1CCC1CCCCC1` [Example 47, 3-(2-cyclohexylethyl)-2-(3-hydroxypyridin-2-yl)-5-(trifluoromethyl)pyrido[4,3-d]pyrimidin-4(3H)-one], the IC50 turned out to be 60 nM.

Take `O=c1c2c(C(F)(F)F)nccc2nc(-c2ncccc2O)n1CCC1CCOCC1` [Example 68, 2-(3-hydroxypyridin-2-yl)-3-(2-(tetrahydro-2H-pyran-4-yl)ethyl)-5-(trifluoromethyl)pyrido[4,3-d]pyrimidin-4(3H)-one]: the IC50 is greater than 1000 nM.

As to `CN(C)c1ccc(-c2nccc3nc(-c4ccccc4O)n(CCc4ccccc4)c(=O)c23)cn1` [Example 27, 5-(6-Dimethylamino-pyridin-3-yl)-2-(2-hydroxy-phenyl)-3-phenethyl-3H-pyrido[4,3-d]pyrimidin-4-one], the IC50 was 2260 nM.

For the compound `O=c1c2c(C(F)(F)F)nccc2nc(C2CCCC2)n1CCc1ccccc1` [Example 59, 2-cyclopentyl-3-phenethyl-5-(trifluoromethyl)pyrido[4,3-d]pyrimidin-4(3H)-one], the IC50 came out at 7790 nM.

For the compound `COc1nccc2nc(-c3ccccc3O)n(CCc3ccccc3)c(=O)c12` [Example 30, 2-(2-Hydroxy-phenyl)-5-methoxy-3-phenethyl-3H-pyrido[4,3-d]pyrimidin-4-one], the IC50 worked out at 1170 nM.

In the case of `CC1(COc2nccc3nc(-c4ccccc4O)n(CCc4ccccc4)c(=O)c23)CC1` [Example 31, 2-(2-Hydroxy-phenyl)-5-(1-methyl-cyclopropylmethoxy)-3-phenethyl-3H-pyrido[4,3-d]pyrimidin-4-one], the concentration for half-maximal inhibition (IC50) stood at 1930 nM.

Consider `CC(Cc1ccccc1F)n1c(-c2ncccc2O)nc2ccnc(C(F)(F)F)c2c1=O` (single isomer, unassigned) [Example 6b, 2-(3-Hydroxy-pyridin-2-yl)-3-(1-methyl-2-(2-fluorophenyl)ethyl)-5-trifluoromethyl-3H-pyrido[4,3-d]pyrimidin-4-one], for which the IC50 amounted to 1400 nM.

On to `O=c1c2c(C(F)(F)F)nccc2nc(-c2ncccc2C(F)(F)F)n1CCc1ccccc1` [Example 76, 3-Phenethyl-5-trifluoromethyl-2-(3-trifluoromethyl-pyridin-2-yl)-3H-pyrido[4,3-d]pyrimidin-4-one], for which the IC50 was 6300 nM.

Consider `N#Cc1ccccc1-c1nc2cccc(C(F)(F)F)c2c(=O)n1CCc1ccccc1F` [Example 71, 2-(3-(2-fluorophenethyl)-4-oxo-5-(trifluoromethyl)-3,4-dihydroquinazolin-2-yl)benzonitrile], for which the IC50 is 420 nM.

For the compound `O=C(Nc1cccnc1-c1nc2ccnc(C(F)(F)F)c2c(=O)n1CCc1ccccc1F)C(F)(F)F` [Example 72, N-(2-(3-(2-fluorophenethyl)-4-oxo-5-(trifluoromethyl)-3,4-dihydropyrido[4,3-d]pyrimidin-2-yl)pyridin-3-yl)-2,2,2-trifluoroacetamide], the IC50 was 940 nM.

`O=c1c2c(C(F)(F)F)nccc2nc(-c2ccccc2O)n1CCc1ccc(F)c(F)c1` [Example 15]: the IC50 turned out to be 160 nM.

With `COc1ccc(F)cc1CCn1c(-c2ncccc2O)nc2ccnc(C(F)(F)F)c2c1=O` [Example 41, 3-(5-fluoro-2-methoxyphenethyl)-2-(3-hydroxypyridin-2-yl)-5-(trifluoromethyl)pyrido[4,3-d]pyrimidin-4(3H)-one], the IC50 worked out at 250 nM.

Take `Nc1cccnc1-c1nc2ccnc(C(F)(F)F)c2c(=O)n1CCc1ccccc1` [Example 63, 2-(3-aminopyridin-2-yl)-3-phenethyl-5-(trifluoromethyl)pyrido[4,3-d]pyrimidin-4(3H)-one]: the IC50 was determined as 770 nM.
